One compound from US11839207B1, “Essential oil-containing formulation for insecticide use, fertilizer application, and/or fertilizer coating” (priority 2019, dated 2023) can be followed below.

What all share (format): in vivo
For test [1], the system named is Aedes. Nature of the test: Arm-in-cage (AIC) repellency test, Aedes. Particulars: 1 ml per 600 cm^2 on forearm. Here is the method:
(§1) Additional testing was conducted comparing the inventive formulation to DEET for the purposes of comparing insect repellency. In many insect repellency studies, there is often a lack of side-by-side comparisons for two or more insect repellents. The study conducted in connection with the inventive formulation sought to address this problem by directly comparing the two insect repellents based on the same active contents, i.e., 15% by weight. The study was conducted using both field testing and laboratory conditions. The tested formulation included ethanolic solutions of 15% DEET (m/m) and 15% of the inventive formulation, and the composition tested corresponded to the target composition described above. […] Under laboratory conditions, the efficacy of mosquito repellents is typically evaluated in the so-called “arm-in-cage” (AIC) test. […] In the field, similar endpoints may be determined on the basis of mosquitoes landing or biting on an exposed skin area, usually the lower leg, while the mosquitoes are collected by aspiration allowing for the identification of the mosquito species in a laboratory. […] In the AIC test the protection time of a repellent is assessed by exposing a treated forearm to hungry mosquitoes at regular intervals (grown from larvae and not fed for 12 hours before the test). The cages measured 16″×16″×14″ and were made of clear glass with an opening on the front side. […]

The test system of test [2] is Anopheles. Nature of the test: Arm-in-cage (AIC) repellency test, Anopheles. As to conditions: 1 ml per 600 cm^2 on forearm. The procedure:
as §1

Test [3] concerns Culex. Description: Arm-in-cage (AIC) repellency test, Culex. As to conditions: 1 ml per 600 cm^2 on forearm. Here is the method: as §1
For test [4], the system named is mosquitoes. Nature of the test: Field repellency test, human landing catch (HLC) method. Particulars: relative protection percentages shown in the FIGURE. Here is the method:
Additional testing was conducted comparing the inventive formulation to DEET for the purposes of comparing insect repellency. In many insect repellency studies, there is often a lack of side-by-side comparisons for two or more insect repellents. The study conducted in connection with the inventive formulation sought to address this problem by directly comparing the two insect repellents based on the same active contents, i.e., 15% by weight. The study was conducted using both field testing and laboratory conditions. […] Under laboratory conditions, the efficacy of mosquito repellents is typically evaluated in the so-called “arm-in-cage” (AIC) test. […] In the field, similar endpoints may be determined on the basis of mosquitoes landing or biting on an exposed skin area, usually the lower leg, while the mosquitoes are collected by aspiration allowing for the identification of the mosquito species in a laboratory. […] The application volume was estimated on the basis of the surface area, calculated as the average of the circumferences just below the knee, the calf and the ankle, multiplied by the length of the lower leg, measured from below the knee to the ankle. […] Raw data was recorded on paper forms. […] The endpoint measured in the experiments was the number of mosquitoes landing on the bare skin during each exposure period. […]

For `CCN(CC)C(=O)c1cccc(C)c1` [15% DEET, DEET], the “median CPT (complete protection time) in the AIC tests” value in test [1] turned out to be 0.5 h; in test [2] it was 2 h; in test [3], 2 h. Moreover, in test [4], the “efficacy in comparative study between AIC test and HLC method in the field” value was “comparable efficacy”.
